In test [1] the target is T1, ALK (Homo sapiens, UniProt Q9UM73).
T1 construct: host or cells: baculovirus expression system
Kind of test: ALK Kinase Assay (ELISA/TRF, PLC-γ substrate). It is filed as biochemical. To be noted: read-out: ALK Potency. The essentials: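 IC50 values derive from percent inhibition plotted against log10 compound concentration and fitted to a variable-slope sigmoidal equation. The underlying reaction used 30 ng/ml ALK acting on immobilized PLC-γ (10 μg/mL in TBS) at 37° C for 15 minutes, read with Eu-N1 PT66 antibody.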
For orientation: ELISA stands for enzyme-linked immunosorbent assay.

Test [2] has as its target T2, JAK2 (Homo sapiens, UniProt O60674).
T2 construct: host or cells: baculovirus expression system
Kind of test: Recombinant Human JAK2 Kinase Assay (TRF). It is filed as biochemical. The following applies: read-out: JAK2 Potency. The procedure, abridged:
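Baculovirus-expressed JAK2 (15 ng/ml) phosphorylated a biotinylated 15-mer peptide captured on Neutravidin, in 20 mM HEPES pH 7.2, 0.2 μM ATP, 1 mM MnCl2, 0.1% BSA, 2.5% DMSO final, 20 min at room temperature. Phosphoproduct detected by time-resolved fluorescence with Eu-N1-labelled PY100 antibody.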

The mark [3] stands for this setting: ALK kinase inhibition, 1 μM ATP.
Setting [4] is: JAK2 kinase inhibition, 0.2 μM ATP.

Where two headings read alike, the source gives them in different places. A value given as a limit tells only on which side of the number the result lay.

T1 sequence (Q9UM73 19-1620): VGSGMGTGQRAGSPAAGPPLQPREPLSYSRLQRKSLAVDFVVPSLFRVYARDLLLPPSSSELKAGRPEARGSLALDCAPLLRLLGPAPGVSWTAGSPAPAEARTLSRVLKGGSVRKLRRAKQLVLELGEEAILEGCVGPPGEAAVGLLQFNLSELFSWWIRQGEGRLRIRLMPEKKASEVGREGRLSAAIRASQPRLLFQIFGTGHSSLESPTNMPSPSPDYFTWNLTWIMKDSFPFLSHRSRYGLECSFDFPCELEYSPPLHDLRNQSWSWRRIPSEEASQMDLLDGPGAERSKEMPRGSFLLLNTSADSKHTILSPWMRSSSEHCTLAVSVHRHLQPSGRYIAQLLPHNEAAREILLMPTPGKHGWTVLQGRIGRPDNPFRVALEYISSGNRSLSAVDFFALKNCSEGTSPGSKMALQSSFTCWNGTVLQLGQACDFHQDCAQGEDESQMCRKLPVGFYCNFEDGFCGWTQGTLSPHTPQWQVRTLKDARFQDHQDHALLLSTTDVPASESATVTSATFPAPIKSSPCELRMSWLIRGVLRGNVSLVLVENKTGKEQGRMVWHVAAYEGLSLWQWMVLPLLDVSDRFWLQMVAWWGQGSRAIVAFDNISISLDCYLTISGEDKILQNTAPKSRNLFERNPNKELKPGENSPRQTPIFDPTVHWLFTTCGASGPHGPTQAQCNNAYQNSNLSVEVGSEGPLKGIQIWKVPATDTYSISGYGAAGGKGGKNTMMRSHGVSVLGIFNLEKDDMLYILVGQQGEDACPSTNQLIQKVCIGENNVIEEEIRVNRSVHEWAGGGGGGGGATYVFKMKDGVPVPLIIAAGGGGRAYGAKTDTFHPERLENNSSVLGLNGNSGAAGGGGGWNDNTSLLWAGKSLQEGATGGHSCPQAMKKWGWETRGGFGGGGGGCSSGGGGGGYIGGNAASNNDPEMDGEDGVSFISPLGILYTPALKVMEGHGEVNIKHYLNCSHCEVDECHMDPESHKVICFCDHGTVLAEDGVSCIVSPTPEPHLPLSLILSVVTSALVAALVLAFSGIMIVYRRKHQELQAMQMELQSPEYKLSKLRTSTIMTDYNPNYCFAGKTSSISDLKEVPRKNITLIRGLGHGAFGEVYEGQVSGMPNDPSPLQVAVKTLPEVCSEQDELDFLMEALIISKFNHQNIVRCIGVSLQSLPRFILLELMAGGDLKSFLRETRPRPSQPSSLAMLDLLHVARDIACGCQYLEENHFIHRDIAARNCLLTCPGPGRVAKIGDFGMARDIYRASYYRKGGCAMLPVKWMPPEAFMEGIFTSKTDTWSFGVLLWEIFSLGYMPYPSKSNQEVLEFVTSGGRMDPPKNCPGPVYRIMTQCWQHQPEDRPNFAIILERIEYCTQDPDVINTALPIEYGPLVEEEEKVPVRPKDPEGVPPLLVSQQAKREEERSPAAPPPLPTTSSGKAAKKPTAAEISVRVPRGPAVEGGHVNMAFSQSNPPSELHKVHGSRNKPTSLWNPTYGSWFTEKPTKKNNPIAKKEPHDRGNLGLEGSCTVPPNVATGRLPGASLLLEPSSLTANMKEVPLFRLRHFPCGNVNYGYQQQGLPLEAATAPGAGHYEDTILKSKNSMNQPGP
T2 sequence (O60674 whole entry): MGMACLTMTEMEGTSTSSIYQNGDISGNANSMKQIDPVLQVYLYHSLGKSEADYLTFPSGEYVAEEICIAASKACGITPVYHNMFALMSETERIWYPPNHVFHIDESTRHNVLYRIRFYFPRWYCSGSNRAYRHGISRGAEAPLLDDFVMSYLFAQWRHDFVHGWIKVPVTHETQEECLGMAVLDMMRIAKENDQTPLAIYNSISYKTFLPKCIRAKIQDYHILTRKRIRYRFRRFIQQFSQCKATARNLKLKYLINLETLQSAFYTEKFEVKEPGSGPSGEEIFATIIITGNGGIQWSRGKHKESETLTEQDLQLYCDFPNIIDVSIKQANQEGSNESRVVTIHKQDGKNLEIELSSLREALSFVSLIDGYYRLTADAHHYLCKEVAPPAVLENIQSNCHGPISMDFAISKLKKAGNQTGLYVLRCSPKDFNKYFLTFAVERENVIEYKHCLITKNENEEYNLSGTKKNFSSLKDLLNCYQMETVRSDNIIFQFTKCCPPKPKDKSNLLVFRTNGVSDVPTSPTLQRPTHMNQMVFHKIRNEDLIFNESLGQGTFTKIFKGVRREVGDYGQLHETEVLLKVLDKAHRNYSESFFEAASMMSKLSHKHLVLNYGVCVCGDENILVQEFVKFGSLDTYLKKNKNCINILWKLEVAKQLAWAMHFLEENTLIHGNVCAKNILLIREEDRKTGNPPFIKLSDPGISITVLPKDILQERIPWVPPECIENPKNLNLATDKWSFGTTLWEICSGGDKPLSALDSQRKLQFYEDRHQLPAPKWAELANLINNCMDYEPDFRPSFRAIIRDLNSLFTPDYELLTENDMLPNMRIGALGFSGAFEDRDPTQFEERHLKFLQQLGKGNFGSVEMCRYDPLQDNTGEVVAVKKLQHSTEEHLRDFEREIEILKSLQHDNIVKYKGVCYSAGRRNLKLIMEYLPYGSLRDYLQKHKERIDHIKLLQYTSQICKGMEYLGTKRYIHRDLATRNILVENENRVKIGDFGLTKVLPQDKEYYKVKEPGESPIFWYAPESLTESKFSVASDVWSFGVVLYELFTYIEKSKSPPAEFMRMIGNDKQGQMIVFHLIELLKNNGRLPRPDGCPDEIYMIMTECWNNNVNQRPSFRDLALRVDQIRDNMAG

Consider `COc1cc(Cn2ccnc2C)ccc1Nc1ncc2ccc(-c3ccccc3OC)n2n1` [Example 506, [2-Methoxy-4-(2-methyl-imidazol-1-ylmethyl)-phenyl]-[7-(2-methoxy-phenyl)-pyrrolo[2,1-f][1,2,4]triazin-2-yl]-amine], for which the IC50 in test [1] (setting [3]) is < 0.1 µM; in test [2] (setting [4]), 0.1 to 1 µM.
For `COc1cc(N2CCN(C[C@H](C)O)CC2)ccc1Nc1ncc2ccc(-c3ccccc3[S+](C)[O-])n2n1` (stereo partly drawn) [Example 545, (S)-1-(4-{4-[7-(2-Methanesulfinyl-phenyl)-pyrrolo[2,1-f][1,2,4]triazin-2-ylamino]-3-methoxy-phenyl}-piperazin-1-yl)-propan-2-ol], the IC50 in test [1] (setting [3]) and in test [2] (setting [4]) was 0.1 to 1 µM in each case.
Take `COc1cc(N(C)C(=O)CN2CCOCC2)ccc1Nc1ncc2ccc(-c3ccccc3N(C)S(C)(=O)=O)n2n1` [Example 473, N-(4-{7-[2-(Methanesulfonyl-methyl-amino)-phenyl]-pyrrolo[2,1-f][1,2,4]triazin-2-ylamino}-3-methoxy-phenyl)-N-methyl-2-morpholin-4-yl-acetamide]: the IC50 in test [1] (setting [3]) was < 0.1 µM; in test [2] (setting [4]) it was 1 to 10 µM.
Consider `COc1ccccc1-c1ccc2cnc(NC(=O)Nc3ccc(N4CCN(C)CC4)cc3)nn12` [Example 449, 1-[7-(2-Methoxy-phenyl)-pyrrolo[2,1-f][1,2,4]triazin-2-yl]-3-[4-(4-methyl-piperazin-1-yl)-phenyl]-urea], for which the IC50 in test [1] (ALK Kinase Inhibition) was 0.1 to 1 µM; in test [2] (JAK2 Kinase Inhibition), < 0.1 µM.
With `COc1ccccc1-c1ccn2nc(Nc3ccc4c(c3)CN(C)CC4)ncc12` [Example 722, [5-(2-Methoxy-phenyl)-pyrrolo[2,1-f][1,2,4]triazin-2-yl]-(2-methyl-1,2,3,4-tetrahydro-isoquinolin-7-yl)-amine], the IC50 in test [1] (setting [3]) was > 10 µM; in test [2] (setting [4]), 1 to 10 µM.
For the molecule `CC(=O)Nc1cccc(Nc2ncc3ccc(-c4cccc(NC(=O)C(C)(C)C)c4)n3n2)c1` [Example 881, N-{3-[2-(3-Acetylamino-phenylamino)-pyrrolo[2,1-f][1,2,4]triazin-7-yl]-phenyl}-2,2-dimethyl-propionamide], the IC50 in test [1] (setting [3]) was 1 to 10 µM; in test [2] (setting [4]) it was < 0.1 µM.
Turning to `COc1ccc(-c2ccc3cnc(Nc4cccc(N)c4)nn23)cn1` [Example 898, N-[7-(6-Methoxy-pyridin-3-yl)-pyrrolo[2,1-f][1,2,4]triazin-2-yl]-benzene-1,3-diamine], the IC50 is 1 to 10 µM in test [1] (setting [3]) and < 0.1 µM in test [2] (setting [4]).
For the molecule `COc1ccc(-c2ccc3cnc(Nc4ccc(F)c(N5CCOCC5)c4)nn23)cn1` [Example 392, (4-Fluoro-3-morpholin-4-yl-phenyl)-[7-(6-methoxy-pyridin-3-yl)-pyrrolo[2,1-f][1,2,4]triazin-2-yl]-amine], the IC50 in test [1] (ALK Kinase Inhibition) was 1 to 10 µM; in test [2] (JAK2 Kinase Inhibition), < 0.1 µM.
Regarding `COc1ccccc1-c1ccc2cnc(Nc3ccc4c(c3)COCCN4C)nn12` [Example 618, [7-(2-Methoxy-phenyl)-pyrrolo[2,1-f][1,2,4]triazin-2-yl]-(1-methyl-1,2,3,5-tetrahydro-benzo[e][1,4]oxazepin-7-yl)-amine], the IC50 in test [1] (setting [3]) was 0.1 to 1 µM; in test [2] (setting [4]), < 0.1 µM.
In the case of `NC(=O)CN1CCC(c2ccc(Nc3ncc4ccc(-c5ncccn5)n4n3)cc2)CC1` [Example 1568, 2-{4-[4-(7-Pyrimidin-2-yl-pyrrolo[2,1-f][1,2,4]triazin-2-ylamino)-phenyl]-piperidin-1-yl}-acetamide], the IC50 in test [1] (ALK Kinase Inhibition) was 1 to 10 µM; in test [2] (JAK2 Kinase Inhibition), < 0.1 µM.
`CN(c1ccccc1-c1ccc2cnc(Nc3ccc(-c4cccnc4)cc3)nn12)S(C)(=O)=O` [Example 1092, N-Methyl-N-{2-[2-(4-pyridin-3-yl-phenylamino)-pyrrolo[2,1-f][1,2,4]triazin-7-yl]-phenyl}-methanesulfonamide]: the results for the IC50 in test [1] (setting [3]) and in test [2] (setting [4]) were 0.1 to 1 µM and < 0.1 µM, respectively.
Turning to `CNC(=O)c1ccc(-c2ccc3cnc(Nc4cccc(N5CCOCC5)c4)nn23)cc1` [Example 194, N-Methyl-4-[2-(3-morpholin-4-yl-phenylamino)-pyrrolo[2,1-f][1,2,4]triazin-7-yl]-benzamide], the IC50 in test [1] (ALK Kinase Inhibition) is 0.1 to 1 µM; in test [2] (JAK2 Kinase Inhibition) it was < 0.1 µM.
`COc1cc(N(C)C(=O)CN2CCOCC2)ccc1Nc1ncc2ccc(-c3ccccc3OC)n2n1` [Example 472, N-{3-Methoxy-4-[7-(2-methoxy-phenyl)-pyrrolo[2,1-f][1,2,4]triazin-2-ylamino]-phenyl}-N-methyl-2-morpholin-4-yl-acetamide]: the IC50 was < 0.1 µM in test [1] (setting [3]) and 0.1 to 1 µM in test [2] (setting [4]).
For “7-(2-Methoxy-phenyl)-2-(2-methoxy-4-piperazin-1-ylmethyl-phenoxy)-pyrrolo[2,1-f][1,2,4]triazine [Example 1238]”, the IC50 in test [1] (setting [3]) is < 0.1 µM; in test [2] (setting [4]) it was 0.1 to 1 µM.
For `CN(c1ccccc1-c1ccc2cnc(Nc3ccc4cnn(CCN5CCOCC5)c4c3)nn12)S(C)(=O)=O` [Example 1334, N-Methyl-N-(2-{2-[1-(2-morpholin-4-yl-ethyl)-1H-indazol-6-ylamino]-pyrrolo[2,1-f][1,2,4]triazin-7-yl}-phenyl)-methanesulfonamide], the values for the IC50 in test [1] (setting [3]) and in test [2] (setting [4]) were 1 to 10 µM and < 0.1 µM, respectively.
In the case of `CC(=O)N1CCc2ccc(Nc3ncc4ccc(-c5cnn(C)c5)n4n3)cc21` [Example 966, 1-{6-[7-(1-Methyl-1H-pyrazol-4-yl)-pyrrolo[2,1-f][1,2,4]triazin-2-ylamino]-2,3-dihydro-indol-1-yl}-ethanone], the IC50 in test [1] (setting [3]) was 1 to 10 µM; in test [2] (setting [4]) it was < 0.1 µM.
For the molecule `COc1cc(Nc2ncc3ccc(-c4cccc(Cl)c4)n3n2)ccc1N1CCN(C)CC1` [Example 64, [7-(3-Chloro-phenyl)-pyrrolo[2,1-f][1,2,4]triazin-2-yl]-[3-methoxy-4-(4-methyl-piperazin-1-yl)-phenyl]-amine], the IC50 in test [1] (ALK Kinase Inhibition) and in test [2] (JAK2 Kinase Inhibition) was < 0.1 µM throughout.
As to `CCN1CCC(O)(c2ccc(Nc3ncc4ccc(-c5ccccc5N(C)S(C)(=O)=O)n4n3)c(OC)c2)CC1` [Example 743, N-(2-{2-[4-(1-Ethyl-4-hydroxy-piperidin-4-yl)-2-methoxy-phenylamino]-pyrrolo[2,1-f][1,2,4]triazin-7-yl}-phenyl)-N-methyl-methanesulfonamide], the IC50 in test [1] (setting [3]) is < 0.1 µM; in test [2] (setting [4]), 1 to 10 µM.
Turning to `COc1ccccc1-c1ccn2nc(NCc3cccc(N(C)C)c3)ncc12` [Example 721, (3-Dimethylamino-benzyl)-[5-(2-methoxy-phenyl)-pyrrolo[2,1-f][1,2,4]triazin-2-yl]-amine], the IC50 was > 10 µM in test [1] (setting [3]) and 1 to 10 µM in test [2] (setting [4]).
As for `COc1ccc(OC)c(-c2ccc3cnc(Nc4ccc(N5CCC(N6CCOCC6)CC5)cc4OC)nn23)c1` [Example 1476, [7-(2,5-Dimethoxy-phenyl)-pyrrolo[2,1-f][1,2,4]triazin-2-yl]-[2-methoxy-4-(4-morpholin-4-yl-piperidin-1-yl)-phenyl]-amine], the IC50 in test [1] (ALK Kinase Inhibition) was < 0.1 µM; in test [2] (JAK2 Kinase Inhibition) it was 0.1 to 1 µM.
In the case of `COc1ccc(Cl)cc1-c1ccc2cnc(Nc3cccc(N4CCN(CCO)CC4)c3)nn12` [Example 180, 2-(4-{3-[7-(5-Chloro-2-methoxy-phenyl)-pyrrolo[2,1-f][1,2,4]triazin-2-ylamino]-phenyl}-piperazin-1-yl)-ethanol], the IC50 in test [1] (ALK Kinase Inhibition) and in test [2] (JAK2 Kinase Inhibition) was < 0.1 µM in each case.
On to `CC(=O)Nc1cccc(Nc2ncc3ccc(-c4cccc(CN(C)S(C)(=O)=O)c4)n3n2)c1` [Example 1053, N-[3-(7-{3-[(Methanesulfonyl-methyl-amino)-methyl]-phenyl}-pyrrolo[2,1-f][1,2,4]triazin-2-ylamino)-phenyl]-acetamide], for which the IC50 in test [1] (setting [3]) was 1 to 10 µM; in test [2] (setting [4]) it was < 0.1 µM.
`COc1ccccc1-c1c(Br)c(Br)c2cnc(Nc3ccc(N4CCOCC4)cc3)nn12` [Example 110, [5,6-Dibromo-7-(2-methoxy-phenyl)-pyrrolo[2,1-f][1,2,4]triazin-2-yl]-(4-morpholin-4-yl-phenyl)-amine]: the results for the IC50 in test [1] (ALK Kinase Inhibition) and in test [2] (JAK2 Kinase Inhibition) were > 10 µM and < 0.1 µM, respectively.
With `CCCS(=O)(=O)Nc1cccc(-c2ccc3cnc(Nc4ccc(N5CCOCC5)cc4)nn23)c1` [Example 418, Propane-1-sulfonic acid {3-[2-(4-morpholin-4-yl-phenylamino)-pyrrolo[2,1-f][1,2,4]triazin-7-yl]-phenyl}-amide], the IC50 is 0.1 to 1 µM in test [1] (ALK Kinase Inhibition) and < 0.1 µM in test [2] (JAK2 Kinase Inhibition).
With `COc1ccccc1-c1ccc2cnc(Nc3ccc(C4C(=O)N(C)CCN4C)cc3)nn12` (stereo not drawn) [Example 1076, 3-{4-[7-(2-Methoxy-phenyl)-pyrrolo[2,1-f][1,2,4]triazin-2-ylamino]-phenyl}-1,4-dimethyl-piperazin-2-one], the IC50 in test [1] (setting [3]) was 1 to 10 µM; in test [2] (setting [4]), < 0.1 µM.
As for `COc1ccc(-c2ccc3cnc(Nc4ccn(CC(=O)N5CCN(C)CC5)n4)nn23)cn1` [Example 1115, 2-{3-[7-(6-Methoxy-pyridin-3-yl)-pyrrolo[2,1-f][1,2,4]triazin-2-ylamino]-pyrazol-1-yl}-1-(4-methyl-piperazin-1-yl)-ethanone], the IC50 in test [1] (setting [3]) was 1 to 10 µM; in test [2] (setting [4]), < 0.1 µM.
With `COc1ccc(-c2ccc3cnc(Nc4ccc(C5CCN(CCO)CC5)cc4)nn23)cn1` [Example 671, 2-(4-{4-[7-(6-Methoxy-pyridin-3-yl)-pyrrolo[2,1-f][1,2,4]triazin-2-ylamino]-phenyl}-piperidin-1-yl)-ethanol], the IC50 in test [1] (setting [3]) is 0.1 to 1 µM; in test [2] (setting [4]) it was < 0.1 µM.

(Values after patent US8471005B2 (Cephalon, Inc., priority 2008, dated 2013).)
